Experimental findings from patent publication US20050282908A1, “Substituted aminopropoxyaryl derivatives useful as agonists for LXR” (SmithKline Beecham Corporation, priority 2000, published 2005) are described below.

Assay [1] deals with T1, human LXRβ ligand binding domain (Homo sapiens, UniProt P55055).
T1 construct: made in house; host or cells: E. coli BL21 (DE3), vector pRSETa
T1 sequence (P55055 184-460 limits assumed): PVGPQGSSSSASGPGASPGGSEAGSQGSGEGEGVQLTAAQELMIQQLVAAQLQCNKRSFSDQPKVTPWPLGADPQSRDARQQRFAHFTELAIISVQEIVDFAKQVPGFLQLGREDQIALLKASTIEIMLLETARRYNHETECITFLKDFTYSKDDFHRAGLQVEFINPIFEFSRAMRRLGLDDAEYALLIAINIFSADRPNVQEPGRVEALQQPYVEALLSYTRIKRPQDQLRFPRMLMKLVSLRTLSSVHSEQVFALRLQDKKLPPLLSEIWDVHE
T1 sequence (Q15788 676-700 partner limits assumed): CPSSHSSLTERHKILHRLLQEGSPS
Briefly: Assay for LXRβ Activity (HTRF, SRC-1 peptide recruitment). Format: biochemical. Particulars: 1 μM; over a background reading of 10000 fluorescence units. The procedure:
A modified polyhistidine tag (MKKGHHHHHHG) (SEQ ID No. 1) was fused in frame to the human LXRβ ligand binding domain (amino acids 185-461 of Genbank accession number U07132) and subcloned into the expression vector pRSETa (Invitrogen) under the control of an IPTG inducible T7 promoter. The human LXRβ ligand binding domain was expressed in E. coli strain BL21 (DE3). Ten-liter fermentation batches were grown in Rich PO4 media with 0.1 mg/mL Ampicillin at 25° C. for 12 hours, cooled to 9° C. and held at that temperature for 36 hours to a density of OD600=14. At this cell density, 0.25 mM IPTG was added and induction proceeded for 24 hours at 9° C., to a final OD600=16. Cells were harvested by centrifugation (20 minutes, 3500 g, 4° C.), and concentrated cell slurries were stored in PBS at −80° C.
Typically 25-50 g of cell paste is resuspended in 250-500 mL TBS, pH 8.0 (25 mM Tris, 150 mM NaCl). Cells are lysed by passing 3 times through an APV Rannie MINI-lab homogenizer and cell debris is removed by centrifugation (30 minutes, 20,000 g, 4° C.). […] After washing to baseline absorbance with equilibration buffer, the column is washed with approximately one column volume of TBS pH […] containing 95 mM imidazole. […] After washing to baseline absorbance with the dilution buffer the protein is eluted with a gradient from 50-500 mM NaCl. […]
For orientation: Time-resolved FRET reads energy transfer from a long-lived donor to a nearby acceptor.

Assay [2] deals with T2, LXRα ligand binding domain (Homo sapiens, UniProt Q13133).
T2 construct: His tag; made in house
T2 sequence (Q13133 183-447): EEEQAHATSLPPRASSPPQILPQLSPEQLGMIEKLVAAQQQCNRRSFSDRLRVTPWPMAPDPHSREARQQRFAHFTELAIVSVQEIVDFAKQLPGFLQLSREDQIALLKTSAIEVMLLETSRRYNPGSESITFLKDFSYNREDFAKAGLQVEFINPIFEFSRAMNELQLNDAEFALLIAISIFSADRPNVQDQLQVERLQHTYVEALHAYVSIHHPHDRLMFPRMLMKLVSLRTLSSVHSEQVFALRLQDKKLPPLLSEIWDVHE
T2 sequence (Q15788 676-700 partner): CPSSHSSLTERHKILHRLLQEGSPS
Put plainly: Assay for LXRα Activity (HTRF, run as Example 1). It counts as biochemical. Particulars: 1 μM; over a background reading of 10000 fluorescence units. The procedure:
The assay for LXRα was run according to the procedures of Example 1, above using his-tagged LXRα ligand binding domain (amino acids 183-447 of Genbank accession number U22662, with the 14th amino acid corrected to A from R).
In this assay 1 μM 24(S),25-epoxycholesterol gave a reading of 20000 fluorescence units over a background reading of 10000 fluorescence units.

`C[C@H](CC[C@@H]1OC1(C)C)[C@H]1CC[C@H]2[C@@H]3CC=C4C[C@@H](O)CC[C@]4(C)[C@H]3CC[C@]12C` [24(S),25-epoxycholesterol]: the reading in assay [1] and in assay [2] was 20000 fluorescence units each time.
